Paper PMC7274485, “A symbiotic bacterium of shipworms produces a compound with broad spectrum anti-apicomplexan activity” (PLoS Pathogens, 2020)
Like-named read-outs stand apart in the source and are kept apart here.

Key:
[1] = test system: extracellular T. gondii tachyzoites; experiment: Extracellular T. gondii tachyzoites treated 2 hours, washed, then infection of HFF quantified by luciferase; format: cell-based, Toxoplasma gondii
Protocol: Because we had tested the compound against intracellular parasites, it was unclear if trtE was exerting a direct effect on the parasites, or if trtE acted indirectly on the parasites by modulating host cell pathways. […] Growth of the parasites was measured 24 hours later by luciferase expression.
To determine the direct effect of trtE on T. gondii, RH GFP/Luc tachyzoites that had exited from host cells were combined with trtE at varying concentrations and incubated at 37°C and 5% CO2 for 2 hours. Tachyzoites in 0.01% DMSO were run in parallel. The parasites were washed to remove compound and added to 96-well plates containing confluent HFFs. Growth was monitored 24 hours later using Bright-glo Luciferase assay system (Promega). Percent inhibition was calculated as ((luciferase reading DMSO treated parasites—luciferase reading of trtE treated parasites)/ luciferase reading DMSO treated parasites)*100.

[2] = test system: Babesia bovis; experiment: B. bovis-infected erythrocyte proliferation, SYBR green incorporation; format: cell-based; conditions: in Bos taurus, infected erythrocytes, 72 hours, read-out: EC50 against B. bovis
Protocol: B. bovis and B. bigemina inhibitor response assays were adapted from components of [79–81]. B. bovis and B. bigemina parasites were maintained in bovine erythrocytes under microaerophilic stationary phase conditions in vitro as described elsewhere. Prior to use in growth studies parasites were grown in erythrocytes from which leukocytes were depleted. Cultures were set up at 0.20% parasitized erythrocytes, in quadruplicate, in complete medium supplemented with trtE. Final concentration of DMSO in all cultures was 1%, and was consistent throughout. Following 72h growth under 90% nitrogen, 5% oxygen, 5% carbon dioxide cells were harvested by thorough resuspension, and transferred to a black, opaque 96-well plate. Cells were freeze-thawed at -80°C overnight, then mixed with an equal volume of SYBR Green lysis buffer. Lysis buffer was composed of 20 mM Tris, pH 7.5, 5 mM EDTA, 0.008% (w/v) saponin, 0.08% (v/v) NP40, and contained 0.2 μl 10,000x SYBR Green I dye ml^-1 (S7563; Invitrogen; Carlsbad, CA). Plates were incubated for one hour at room temperature in the dark prior to reading in a microplate reader, at 485 nm excitation and 528 nm emission wavelengths.

[3] = test system: Plasmodium falciparum; experiment: P. falciparum-infected erythrocyte proliferation, SYBR green incorporation; format: cell-based; conditions: Plasmodium falciparum, Erythrocyte
Text: The maintenance of Plasmodium falciparum cultures and conducting of in vitro inhibitor response assays have been previously described.

[4] = test system: intracellular T. gondii RH strain; experiment: Immunofluorescence assay (anti-SAG1) of T. gondii-infected HFF cells; format: cell-based, Toxoplasma gondii; conditions: RH strain in HFF; 60 nM trtE for 24 hours (Fig 2B)
Text: For our initial study, we chose to look for anti-apicomplexan compounds in Teredinibacter turnerae. T. turnerae is a gill symbiotic bacterium common to many species of shipworms. We grew two strains of T. turnerae, T7901 [1] and T7902 [24], in shipworm bacterial media (SBM), pelleted the cells and tested the culture supernatants for activity against T. gondii. We chose T. gondii, a ubiquitous coccidian parasite, as a target parasite because it represents a significant human and animal pathogen, it is easily propagated in vitro and is amenable to genetic manipulation. T. gondii is often used as a model for other, more challenging apicomplexans. […] Parasites were evaluated after 24 hours of treatment by immunofluorescence (IFA) microscopy with rabbit antibody to the T. gondii surface antigen, SAG1 [27]. […]
For all IFAs, the investigator reading the slides and collecting images was blind to the sample treatment. […] 24 hours post treatment, infected cells were fixed with methanol, and parasites detected with rabbit anti-SAG1 antibody for T. gondii or rabbit anti-gp15 for C. parvum as we have described previously. […] This CE11 line is transiently transfected with a plasmid that expresses nanoluciferase from a B. divergens promoter and green fluorescence protein-blasticidin (gfp-bsd) from the selection cassette. […]

[5] = test system: Toxoplasma gondii bradyzoites; experiment: Very preliminary study against T. gondii bradyzoites; format: cell-based; conditions: close to the level of toxicity for the host cells
[6] = Pilot pharmacokinetic study in lambs; format: in vivo
Text: A full PK/PD study of trtE in mice and lambs has recently been funded, so in the near future we will be able to answer these questions.

[7] = test system: Gram positive bacteria; conditions: at μM concentrations; cited from earlier work

CC1CCC=CC=CCCC(O)CC(=O)CC2CCC(C)C3(O2)O[B-]24OC(C(=O)O1)C1(OC(CCC1C)CC(=O)CC(O)CCC=CC=CCCC(C)OC(=O)C3O2)O4 (stereo not shown) [trtE, tartrolon E]
EC50 ([1]; Toxoplasma gondii, RH strain tachyzoites treated 2 hours, washed, growth in HFF after 24 hours, read-out: EC50 against extracellular T. gondii tachyzoites): 3.1 nM
Effect of excess K+ ions on trtE activity against extracellular tachyzoites ([1]; addition of excess K+ ions, no positive control): had no effect
EC50 [2]: 15.9 nM
EC50 ([3]; Table 1, rounded, read-out: EC50 against P. falciparum (Table 1)): 0.1 nM
EC50 ([3]; infected erythrocytes, 72 hours, read-out: EC50 against P. falciparum): 0.105 nM
Effect of purified trtE on intracellular T. gondii (IFA) [4]: inhibited intracellular T. gondii growth
Concentration at which trtE was effective against bradyzoites [5]: ~ 1 µM
Absorption from the intestine ([6]; in vivo): rapidly absorbed from the intestine
Tolerability in lambs ([6]; pilot study, lambs): tolerated by the animals
Activity of trtE against Gram positive bacteria [7]: active
